Read-outs that look alike come from different tables or passages of the source.
Experiments:
[1] = test system: P. falciparum male gametocytes; test: P. falciparum Dual Gamete Formation Assay (PfDGFA), male readout (exflagellation); assay type: cell-based, Plasmodium falciparum NF54; settings: for Selectivity Ratio M: HepG2 Tox50 versus male IC50; for IC50: PfDGFA, 24 h incubation with gametocytes before induction, exflagellation readout, read-out: Male IC50; for HitlevelM: number of replicates with >50% inhibition in the male readout
Method in brief: (§1)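 Two sex-specific readouts come from one well: male exflagellation centres recorded by brightfield video right after activation, and female gametes scored by Cy3-anti-Pfs25 fluorescence after 24 h at 28°C.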

[2] = test system: P. falciparum female gametocytes; test: P. falciparum Dual Gamete Formation Assay (PfDGFA), female readout (Pfs25-positive female gametes); assay type: cell-based, Plasmodium falciparum NF54; settings: for Selectivity ratio F: HepG2 Tox50 versus female IC50; for IC50: PfDGFA, 24 h incubation with gametocytes before induction, female gamete readout, read-out: Female IC50; for HitlevelF: number of replicates with >50% inhibition in the female readout
Method in brief: as §1

HepG2 cells = test: HepG2 cytotoxicity counter-screen; settings: cytotoxic activity against HepG2 cells
[3] = 2µM, 24h preincubation with gametocytes, average of replicates
[4] = 2µM, 24h preincubation with gametocytes, replicate R1
[5] = 2µM, 24h preincubation with gametocytes, replicate R3
[6] = 2µM, 24h preincubation with gametocytes, replicate R4
[7] = Plasmodium falciparum, PfDGFA at 2µM, 24h preincubation with gametocytes, average of replicates, read-out: Average inhibition male (%)
[8] = Plasmodium falciparum, PfDGFA at 2µM, 24h preincubation with gametocytes, replicate R1, read-out: % inhibition male (individual replicates) R1
[9] = Plasmodium falciparum, PfDGFA at 2µM, 24h preincubation with gametocytes, replicate R2, read-out: % inhibition male (individual replicates) R2
[10] = Plasmodium falciparum, PfDGFA at 2µM, 24h preincubation with gametocytes, replicate R3, read-out: % inhibition male (individual replicates) R3
[11] = Plasmodium falciparum, PfDGFA at 2µM, 24h preincubation with gametocytes, replicate R4, read-out: % inhibition male (individual replicates) R4
[12] = Plasmodium falciparum, PfDGFA at 2µM, 24h preincubation with gametocytes, average of replicates, read-out: Average inhibition female (%)
[13] = Plasmodium falciparum, PfDGFA at 2µM, 24h preincubation with gametocytes, replicate R1, read-out: % inhibition female (individual replicates) R1
[14] = Plasmodium falciparum, PfDGFA at 2µM, 24h preincubation with gametocytes, replicate R2, read-out: % inhibition female (individual replicates) R2
[15] = Plasmodium falciparum, PfDGFA at 2µM, 24h preincubation with gametocytes, replicate R3, read-out: % inhibition female (individual replicates) R3
[16] = Plasmodium falciparum, PfDGFA at 2µM, 24h preincubation with gametocytes, replicate R4, read-out: % inhibition female (individual replicates) R4
[17] = PfDGFA at 2µM, 24h preincubation with gametocytes, average of replicates
[18] = PfDGFA at 2µM, 24h preincubation with gametocytes, replicate R1
[19] = PfDGFA at 2µM, 24h preincubation with gametocytes, replicate R3
[20] = PfDGFA at 2µM, 24h preincubation with gametocytes, replicate R4

Row | SMILES | Average inhibition male (%) [1, 3] | % inhibition male (individual replicates) R1 [1, 4] | % inhibition male (individual replicates) R3 [1, 5] | Selectivity Ratio M [1] | IC50 [1] | Selectivity ratio F [2] | Tox50 (HepG2 cells) | inhibition at 2 µM [1, 7] | inhibition at 2 µM [1, 8] | inhibition at 2 µM [1, 9] | inhibition at 2 µM [1, 11] | IC50 ([1]; Plasmodium falciparum) | HitlevelM ([1]; 2µM) | inhibition at 2 µM [2, 12] | inhibition at 2 µM [2, 13] | inhibition at 2 µM [2, 14] | inhibition at 2 µM [2, 15] | inhibition at 2 µM [2, 16] | IC50 ([2]; Plasmodium falciparum) | HitlevelF ([2]; 2µM) | further results
1 | CNCCNCc1ccc(-c2ccc(-c3nc4cc(C(F)(F)F)ccc4[nH]3)s2)cc1.O=C(O)C(F)(F)F [TCMDC-132838] | 96.4% | 96.0% | 93.3% | 9.9 | 1.32 µM | 1.31 | 13.1 µM | – | – | – | – | – | – | – | – | – | – | – | – | – | % inhibition male (individual replicates) R4 [1, 6]: 98.9%; Average inhibition female (%) [2, 3]: 23.9%; % inhibition female (individual replicates) R1 [2, 4]: 24.8%; % inhibition female (individual replicates) R3 [2, 5]: 17.6%; % inhibition female (individual replicates) R4 [2, 6]: 33.8%
2 | FC(F)(F)c1ccc2[nH]c(-c3ccc(-c4cccc(CNCCN5CCNCC5)c4)cc3)nc2c1.O=C(O)C(F)(F)F [TCMDC-132864] | – | – | – | 12.52 | – | 3.99 | 20.55 µM | 82.4% | 79.2% | 89.7% | 94.9% | 1.64 µM | 4 | 20.5% | 25.8% | 24.6% | -15.8% | 47.4% | 5.15 µM | 0 | inhibition at 2 µM [1, 10]: 65.9%
3 | FC(F)(F)c1ccc2[nH]c(-c3ccc(-c4ccc(CNCCN5CCNCC5)cc4)cc3)nc2c1.O=C(O)C(F)(F)F [TCMDC-132865] | – | – | – | 9.44 | – | 2.26 | 13.76 µM | 69.5% | 60.9% | 79.2% | 98.9% | 1.46 µM | 3 | 29.2% | 27.7% | 31% | 31% | 27.1% | 6.08 µM | 0 | inhibition at 2 µM [1, 10]: 39.1%
4 | Fc1ccc2[nH]c(-c3ccc(-c4ccc(CNCCN5CCNCC5)cc4)cc3)nc2c1.O=C(O)C(F)(F)F [TCMDC-132866] | – | – | – | 12.07 | – | 2.88 | 28.84 µM | 63.5% | 59% | 70.4% | 92.2% | 2.39 µM | 3 | 11.4% | 18% | 1.6% | 12.7% | 13.5% | > 10 µM | 0 | inhibition at 2 µM [1, 10]: 32.6%
5 | Cc1cccc2nc(-c3ccc(-c4cccc(CNCCN5CCNCC5)c4)cc3)[nH]c12.O=C(O)C(F)(F)F [TCMDC-132867] | – | – | – | 12.97 | – | 2.66 | 24.28 µM | – | – | – | – | 1.87 µM | – | – | – | – | – | – | 9.11 µM | – | HitlevelM ([1]; 2µM, 24h preincubation): 3; inhibition at 2 µM ([1]; Plasmodium falciparum, 2µM, 24h preincubation with gametocytes prior to induction of gametogenesis, average of replicates, read-out: Average inhibition male (%)): 46.3%; inhibition at 2 µM ([1]; Plasmodium falciparum, 2µM, 24h preincubation with gametocytes prior to induction of gametogenesis, replicate R1, read-out: % inhibition male (individual replicates) R1): 51.3%; inhibition at 2 µM ([1]; Plasmodium falciparum, 2µM, 24h preincubation with gametocytes prior to induction of gametogenesis, replicate R2, read-out: % inhibition male (individual replicates) R2): 52.2%; inhibition at 2 µM ([1]; Plasmodium falciparum, 2µM, 24h preincubation with gametocytes prior to induction of gametogenesis, replicate R3, read-out: % inhibition male (individual replicates) R3): 9.9%; inhibition at 2 µM ([1]; Plasmodium falciparum, 2µM, 24h preincubation with gametocytes prior to induction of gametogenesis, replicate R4, read-out: % inhibition male (individual replicates) R4): 71.6%; HitlevelF ([2]; 2µM, 24h preincubation): 1; inhibition at 2 µM ([2]; Plasmodium falciparum, 2µM, 24h preincubation with gametocytes prior to induction of gametogenesis, average of replicates, read-out: Average inhibition female (%)): 20.3%; inhibition at 2 µM ([2]; Plasmodium falciparum, 2µM, 24h preincubation with gametocytes prior to induction of gametogenesis, replicate R1, read-out: % inhibition female (individual replicates) R1): 12%; inhibition at 2 µM ([2]; Plasmodium falciparum, 2µM, 24h preincubation with gametocytes prior to induction of gametogenesis, replicate R2, read-out: % inhibition female (individual replicates) R2): 8.9%; inhibition at 2 µM ([2]; Plasmodium falciparum, 2µM, 24h preincubation with gametocytes prior to induction of gametogenesis, replicate R3, read-out: % inhibition female (individual replicates) R3): 0.36%; inhibition at 2 µM ([2]; Plasmodium falciparum, 2µM, 24h preincubation with gametocytes prior to induction of gametogenesis, replicate R4, read-out: % inhibition female (individual replicates) R4): 60%
6 | Fc1ccc2[nH]c(-c3ccc(-c4ccc(CNCCN5CCNCC5)cc4)s3)nc2c1.O=C(O)C(F)(F)F [TCMDC-132869] | – | – | – | 12.22 | – | 3.35 | 24.05 µM | 66.3% | 55.2% | 84.7% | 92.9% | 1.97 µM | 3 | 6.1% | 10.8% | 10.6% | -3.4% | 6.4% | 7.18 µM | 0 | inhibition at 2 µM [1, 10]: 32.6%
7 | FC(F)(F)c1ccc2[nH]c(-c3cccc(-c4cccc(CNCCN5CCNCC5)c4)c3)nc2c1.O=C(O)C(F)(F)F [TCMDC-132871] | 95.8% | 94.1% | 90.3% | 6.65 | 1.52 µM | 1.27 | 10.12 µM | – | – | – | – | – | – | – | – | – | – | – | – | – | % inhibition male (individual replicates) R4 [1, 6]: 100.2%; Average inhibition female (%) [2, 3]: 25.3%; % inhibition female (individual replicates) R1 [2, 4]: 24.1%; % inhibition female (individual replicates) R3 [2, 5]: 40.5%; % inhibition female (individual replicates) R4 [2, 6]: 19.2%; IC50 [2]: 7.94 µM
8 | FC(F)(F)c1ccc2[nH]c(-c3cccc(-c4ccc(CNCCN5CCNCC5)cc4)c3)nc2c1.O=C(O)C(F)(F)F [TCMDC-132872] | – | – | – | 9.17 | 1.58 µM | 2.18 | 14.49 µM | – | – | – | – | – | 3 | – | – | – | – | – | – | 0 | Average inhibition male (%) [1, 17]: 72.1%; % inhibition male (individual replicates) R1 [1, 18]: 71.0%; % inhibition male (individual replicates) R3 [1, 19]: 37.9%; % inhibition male (individual replicates) R4 [1, 20]: 97.6%; Average inhibition female (%) [2, 17]: 30.3%; % inhibition female (individual replicates) R1 [2, 18]: 24.6%; % inhibition female (individual replicates) R3 [2, 19]: 21.1%; % inhibition female (individual replicates) R4 [2, 20]: 42.9%; IC50 [2]: 6.65 µM
9 | COc1ccc(-c2cnc(N)c(-c3ccc(C(N)=O)cc3)c2)cc1OC [TCMDC-133349] | – | – | – | 54.05 | – | 1.51 | 15.14 µM | 71.3% | 80.4% | 82.4% | 51.1% | 0.28 µM | 3 | 9.1% | 0.18% | 11.3% | 7.9% | 17.1% | > 10 µM | 0 | –
10 | CNC(=O)c1ccccc1Nc1nc(Nc2ccc(CCN3CCN(C)CC3)cc2)ncc1Cl.Cl [TCMDC-133800] | 96.7% | 94.6% | 98.6% | 5.19 | 0.06 µM | 0.03 | 0.33 µM | – | – | – | – | – | – | – | – | – | – | – | – | – | % inhibition male (individual replicates) R4 [1, 6]: 96.9%; Average inhibition female (%) [2, 3]: 7.2%; % inhibition female (individual replicates) R1 [2, 4]: 6.8%; % inhibition female (individual replicates) R3 [2, 5]: -10.4%; % inhibition female (individual replicates) R4 [2, 6]: 12.4%
11 | CNC(=O)c1ccccc1Nc1nc(Nc2cccc(CS(C)(=O)=O)c2)ncc1C.O=CO [TCMDC-133809] | 90.9% | 93.6% | 92.1% | 6.79 | 0.15 µM | 0.1 | 1.03 µM | – | – | – | – | – | – | – | – | – | – | – | – | – | % inhibition male (individual replicates) R4 [1, 6]: 84.9%; Average inhibition female (%) [2, 3]: -2.2%; % inhibition female (individual replicates) R1 [2, 4]: -7.2%; % inhibition female (individual replicates) R3 [2, 5]: 6.2%; % inhibition female (individual replicates) R4 [2, 6]: -11.5%

Source: publication PMC10584170, “Machine learning-based phenotypic imaging to characterise the targetable biology of Plasmodium falciparum male gametocytes for the development of transmission-blocking antimalarials” (PLOS Pathogens, 2023)
